Counter-ions that a name gives are not always drawn.
target: T1, α7 nAChR (Rattus norvegicus, UniProt Q05941); assay: [3H]-MLA competition binding assay in rat brain membranes; conditions: inhibition of [3H]-MLA binding (3.0 to 4.0 nM), rat brain homogenate (whole brain minus cerebellum), 1 hr at 25° C, Cheng-Prusoff
T1 construct: the brains (whole brain minus cerebellum) are dissected quickly, weighed and homogenized; from tissue; host or cells: rat brain (whole brain minus cerebellum) membranes
Description: Materials and Methods for Identifying Binding Constants
Membrane Preparation. Male Sprague-Dawley rats (300-350 g) are sacrificed by decapitation and the brains (whole brain minus cerebellum) are dissected quickly, weighed and homogenized in 9 volumes/g wet weight of ice-cold 0.32M sucrose using a rotating pestle on setting 50 (10 up and down strokes). The homogenate is centrifuged at 1,000×g for 10 minutes at 4° C. The supernatant is collected and centrifuged at 20,000×g for 20 minutes at 4° C. The resulting pellet is resuspended to a protein concentration of 1-8 mg/mL. Aliquots of 5 mL homogenate are frozen at −80° C. until needed for the assay. On the day of the assay, aliquots are thawed at room temperature and diluted with Kreb's −20 mM Hepes buffer pH 7.0 (at room temperature) containing 4.16 mM NaHCO3, 0.44 mM KH2PO4, 127 mM NaCl, 5.36 mM KCl, 1.26 mM CaCl2, and 0.98 mM MgCl2, so that 25-150 μg protein are added per test tube. Proteins are determined by the Bradford method (Bradford, M. M., Anal. Biochem., 72, 248-254, 1976) using bovine serum albumin as the standard.
Binding Assay. For saturation studies, 0.4 mL homogenate are added to test tubes containing buffer and various concentrations of radioligand, and are incubated in a final volume of 0.5 mL for 1 hr at 25° C. Nonspecific binding was determined in tissues incubated in parallel in the presence of 0.05 ml MLA for a final concentration of 1 μM MLA, added before the radioligand. In competition studies, drugs are added in increasing concentrations to the test tubes before addition of 0.05 ml [^3H]-MLA for a final concentration of 3.0 to 4.0 nM [^3H]-MLA. The incubations are terminated by rapid vacuum filtration through Whatman GF/B glass filter paper mounted on a 48 well Brandel cell harvester. Filters are pre-soaked in 50 mM Tris HCl pH 7.0-0.05% polyethylenimine. The filters are rapidly washed two times with 5 mL aliquots of cold 0.9% saline and then counted for radioactivity by liquid scintillation spectrometry.
Data Analysis. In competition binding studies, the inhibition constant (Ki) was calculated from the concentration dependent inhibition of [^3H]-MLA binding obtained from non-linear regression fitting program according to the Cheng-Prusoff equation (Cheng, Y. C. and Prussoff, W. H., Biochem. Pharmacol., 22, pp. 3099-3108, 1973). Hill coefficients were obtained using non-linear regression (GraphPad Prism sigmoidal dose-response with variable slope).

T1 sequence (Q05941 23-502): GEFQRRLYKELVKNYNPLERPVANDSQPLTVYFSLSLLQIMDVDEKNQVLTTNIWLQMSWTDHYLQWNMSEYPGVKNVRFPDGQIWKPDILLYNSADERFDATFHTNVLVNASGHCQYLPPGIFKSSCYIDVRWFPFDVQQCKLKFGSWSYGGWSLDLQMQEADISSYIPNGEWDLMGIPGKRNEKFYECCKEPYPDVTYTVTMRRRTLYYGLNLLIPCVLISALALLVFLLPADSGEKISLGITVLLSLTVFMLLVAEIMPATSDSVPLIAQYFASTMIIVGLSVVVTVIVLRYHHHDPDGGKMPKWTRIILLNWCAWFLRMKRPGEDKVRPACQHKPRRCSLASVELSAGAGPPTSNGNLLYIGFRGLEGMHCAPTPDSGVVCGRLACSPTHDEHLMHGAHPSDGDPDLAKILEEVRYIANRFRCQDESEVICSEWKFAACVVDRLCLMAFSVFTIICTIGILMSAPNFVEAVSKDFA

Row | SMILES | Ki [nM]
1 | C[C@H]1[C@H](NC(=O)c2ccc3ncsc3c2)C2CCN1CC2 [Example 11, N-[(2S,3R)-2-methyl-1-azabicyclo[2.2.2]oct-3-yl]-1,3-benzothiazole-6-carboxamide hydrochloride] | 92
2 | O=C(N[C@H]1CN2CCC1CC2)c1ccc2ncsc2c1 [Example 5, N-((3R)1-azabicyclo[2.2.2]oct-3-yl)-1,3-benzothiazole-6-carboxamide.fumarate] | 30
3 | O=C(N[C@H]1CN2CCC1CC2)c1ccc2ocnc2c1 [Example 3, N-((3R)1-azabicyclo[2.2.2]oct-3-yl)-1,3-benzoxazole-5-carboxamide.fumarate] | 32
4 | O=C(N[C@H]1CN2CCC1CC2)c1ccc2c(c1)OCO2 [Example 7, N-((3R)-1-azabicyclo[2.2.2]oct-3-yl)-1,3-benzodioxole-5-carboxamide, 4-methylbenzenesulfonate] | 24
5 | O=C(N[C@H]1CN2CCC1CC2)c1ccc2c(c1)CCC2 [Example 6, N-((3R)1-azabicyclo[2.2.2]oct-3-yl)indane-5-carboxamide.fumarate] | 110
6 | C[C@H]1[C@H](NC(=O)c2nc3ccccc3s2)C2CCN1CC2 [Example 1005, N-[(2S,3R)-2-methyl-1-azabicyclo[2.2.2]oct-3-yl]-1,3-benzothiazole-2-carboxamide hydrochloride] | 73
7 | Cc1nc2cc(C(=O)N[C@H]3CN4CCC3CC4)ccc2o1 [Example 4, N-((3R)1-azabicyclo[2.2.2]oct-3-yl)-2-methyl-1,3-benzoxazole-5-carboxamide.fumarate] | 305
